Assay results as given in patent US20100256214A1, “EPH RECEPTOR LIGANDS AND METHODS OF USE” (Burnham Institute for Medical Research, priority 2009, published 2010).

Legend:
[1] = tested on: COS and HT22 cells; assay: Overall tyrosine phosphorylation in COS and HT22 cells; type: cell-based
Protocol: Measurement of Receptor Tyrosine Phosphorylation in Cells—HT22 neuronal cells, which endogenously express EphA4, are derived from immortalized mouse hippocampal neurons (Li et al. (1997) Neuron 19(2), 453-463). COST cells, which endogenously express EphA2, EphB2 and the EGF receptor (EGFR), were obtained from ATCC. Both cell lines were grown in Dulbecco's Modified Eagle's Medium (DMEM) (Mediatech, Inc, Herndon, Va.) with 10% fetal bovine serum (FBS) (Hyclone, Logan, Utah) and Pen/Strep. For EphA4 immunoprecipitations, HT22 cells were serum-starved overnight in 0.5% FBS in DMEM and incubated for 15 min with the compounds or DMSO as a control. The cells were then stimulated with 0.5 μg/mL ephrin-A5 Fc, ephrin-A4 Fc or Fc for 20 min in the continued presence of the compounds. After stimulation the cells were lysed in modified RIPA buffer (1% Triton X-100, 1% Na deoxycholate; 0.1% SDS; 20 mM Tris; 150 mM NaCl; 1 mM EDTA) containing […], 1 μM sodium pervanadate and protease inhibitors. The protein concentration was calculated using the BCA protein assay kit (Pierce Biotecnology, Rockford, Ill.). Cell lysates were immunoprecipitated with 4 μg anti-EphA4 antibody (Soans et al. (1994) Oncogene 9(11), 3353-3361). For EphA2 and EphB2 immunoprecipitations, serum-starved COS7 cells were stimulated with 0.1 μg/mL ephrin-A1 Fc or 0.5 μg/mL ephrin-B2 Fc, respectively. […]

[2] = tested on: EphA and EphB receptors; assay: ELISA, ephrin-A5 AP / ephrin-B2 AP binding to immobilized EphA and EphB receptor Fc fusion proteins
Protocol: (§1) FIGS. 3A and 3B. A. Ephrin-A5 AP binding to immobilized EphA receptor Fc fusion proteins and ephrin-B2 AP binding to immobilized EphB receptor Fc fusion proteins were measured in the presence of the indicated concentrations of compounds 1 and 2. […] Error bars indicate standard error from 3 measurements. B. IC50 values for inhibition of EphA4 AP and EphA2 AP binding to the indicated immobilized ephrins by compounds 1 and 2.
(§2) ELISA Assays and K, Determination—Protein A-coated wells (Pierce Biotecnology, Rockford, Ill.) were used to immobilize ephrin Fc fusion proteins (R&D Systems, Minneapolis, Minn.). Compounds at different concentrations were incubated with EphA4 AP (Cheng and Flanagan, (1994) Cell 79(1), 157-168) or EphA2 AP (Koolpe et al. (2002) J Biol Chem 277(49), 46974-46979) for 3 hours. Alternatively, Eph receptor Fc fusion proteins were immobilized on protein A-coated wells and ephrin-A5 AP (Menzel et al. (2001) Developmental Biology 230(1), 74-88) or ephrin-B2 AP (GeneHunter, Nashville, Tenn.) were added with the compounds. The amount of bound AP-fusion protein was quantified using pNPP as the substrate. Alkaline phosphatase activity from wells with Fc only was subtracted as background. […]

[3] = target: T1, EphA4 (Mus musculus, UniProt Q03137); assay: ELISA, EphA4 AP binding to immobilized ephrin Fc fusion proteins; parameters: made in house; conditioned culture medium used
Protocol: as §1, §2

[4] = target: T1, EphA4; assay: ELISA, EphA4 AP binding to immobilized biotinylated KYL peptide; parameters: made in house; conditioned culture medium used
Protocol: Chemical Library Screening for EphA4 Inhibitors—A 96-well format in vitro assay was used for compound screening. Polystyrene high binding capacity plates (Corning, Corning, N.Y.) were incubated overnight at 4° C. with 2 μg/mL streptavidin (Pierce Biotecnology, Rockford, Ill.) diluted in borate buffer 0.1 M pH 8.7 and then coated by overnight incubation with 0.1 μM of biotinylated KYL peptide (Murai et al. (2003) Mol Cell Neurosci 24(4), 1000-1011) in binding buffer (Tris-buffered saline (TBS; 150 mM NaCl, 50 mM Tris-HCl, pH 7.5) with 1 mM CaCl2 and 0.01% Tween 20). Compounds were added to the wells at 10 μg/mL in 100% dimethylsulfoxide (DMSO) together with EphA4 alkaline phosphatase fusion protein (EphA4 AP) produced from transfected cells. Cell culture medium containing the secreted EphA4 AP was diluted 1:16 in binding buffer. The mixture was incubated for 3 hours at room temperature before washing with binding buffer and adding p-nitrophenylphosphate (pNPP) (Pierce Biotecnology, Rockford, Ill.) as the substrate. After 1 hour the reaction was stopped by adding 2N NaOH and the absorbance at 405 nm was measured using an ELISA plate reader Alkaline phosphatase activity from wells where alkaline phosphatase (AP) was added instead of EphA4 AP was subtracted as background. The inhibitory activity of the compounds was calculated by dividing the absorbance observed in the presence of each compound and the absorbance from wells where no compound was added. Compounds with inhibitory activity higher than 50% were considered hits.

T1 sequence (Q03137 20-547 limits assumed): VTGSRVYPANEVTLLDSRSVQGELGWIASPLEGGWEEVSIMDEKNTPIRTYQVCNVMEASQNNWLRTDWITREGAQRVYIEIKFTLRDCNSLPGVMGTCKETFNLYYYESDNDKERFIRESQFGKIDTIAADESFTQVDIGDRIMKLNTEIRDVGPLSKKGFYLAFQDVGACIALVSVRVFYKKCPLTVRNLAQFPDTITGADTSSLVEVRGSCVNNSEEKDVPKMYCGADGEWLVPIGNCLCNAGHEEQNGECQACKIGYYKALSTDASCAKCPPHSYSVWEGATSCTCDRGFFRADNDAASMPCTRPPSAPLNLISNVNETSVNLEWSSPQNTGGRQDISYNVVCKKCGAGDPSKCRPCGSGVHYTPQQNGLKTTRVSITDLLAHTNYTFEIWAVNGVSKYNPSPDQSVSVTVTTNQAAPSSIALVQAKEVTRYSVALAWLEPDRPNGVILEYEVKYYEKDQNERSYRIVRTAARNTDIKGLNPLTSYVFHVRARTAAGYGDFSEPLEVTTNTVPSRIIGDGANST

| Compound | overall tyrosine phosphorylation [1] | selectivity of inhibition of ephrin binding among EphA and EphB receptors [2] | inhibition of binding of different ephrin ligands to EphA4 [3] | inhibition of EphA4-KYL peptide binding (in words) [4] | IC50 ([4]; read-out: IC50 for inhibition of EphA4 AP binding to KYL peptide) |
| --- | --- | --- | --- | --- | --- |
| Cc1ccc(C)n1-c1ccc(O)c(C(=O)O)c1 [compound 2, 5-(2,5 dimethyl-pyrrol-1-yl)-2-hydroxy-benzoic acid] | did not inhibit | efficiently inhibited ephrin binding only to EphA4 and EphA2 | inhibited binding of most ephrin ligands to EphA4, except for ephrin-A4 and ephrin-B2 | inhibit | 3 µM |
| Cc1ccc(C)n1-c1ccc(C(=O)O)c(O)c1 [compound 1, 4-(2,5-dimethyl-pyrrol-1-yl)-2-hydroxy-benzoic acid] | did not inhibit | efficiently inhibited ephrin binding only to EphA4 and EphA2 | inhibited binding of most ephrin ligands to EphA4, except for ephrin-A4 and ephrin-B2 | inhibit | – |
